# Results: PMC5640650, “NatD promotes lung cancer progression by preventing histone H4 serine phosphorylation to activate Slug expression” (Nature Communications, 2017)
# Assays:
# Type in all cases: cell-based, human
# H1299 cells = assay: Time-lapse cell-tracking, H1299 cells; conditions: HoloMonitor M4, vs Scr
# Text: Fig. 2 NatD is required for lung cancer cell migration and invasion in vitro. a Quantitative real-time PCR analysis of NatD mRNA levels normalized to GAPDH in scrambled control cells (Scr) and NatD-KD1 and NatD-KD2 cells. Results are shown as mean ± s.d. from three independent experiments. Two-tailed Student’s t-test was used. **P < 0.01 compared to Scr control. b Western blot analysis of NatD and Nt-ac-H4 protein levels in scrambled, NatD-KD1, and NatD-KD2 cells. GAPDH and histone H4 served as loading controls. Blots are representative of three independent experiments. c Representative images from wound healing assay of scrambled, NatD-KD1, and NatD-KD2 cells from three independent experiments (left panels). Wound healing assay results are quantified in the histogram (right panel). […] Cell migration and invasion are expressed as a percentage of control (bottom panel). […]
# The in vitro viability of H1299 cells was assessed using the Cell Counting Kit-8 (CCK-8, Dojindo, Japan) according to the manufacturer’s protocol. Flow cytometric analysis of apoptosis was assessed by Annexin V and PI staining using the Annexin V-APC Apoptosis Detection Kit (KeyGEN BioTECH, China) according to the manufacturer’s guide. […] The samples were analyzed by flow cytometry (Becton Dickinson, NJ, USA), and results were analyzed with FlowJo software according to the manufacturer’s instructions. […]
# A549 cells = assay: Transwell migration and invasion assay, A549 cells; conditions: vs Scr
# Procedure: The in vitro viability of H1299 cells was assessed using the Cell Counting Kit-8 (CCK-8, Dojindo, Japan) according to the manufacturer’s protocol. Flow cytometric analysis of apoptosis was assessed by Annexin V and PI staining using the Annexin V-APC Apoptosis Detection Kit (KeyGEN BioTECH, China) according to the manufacturer’s guide. For cell cycle analysis, cells were harvested and fixed at 4 °C overnight with 70% ethanol. Cells were washed twice with PBS, and their DNA was stained using a Cell Cycle Detection Kit (KeyGEN BioTECH, China). The samples were analyzed by flow cytometry (Becton Dickinson, NJ, USA), and results were analyzed with FlowJo software according to the manufacturer’s instructions. For the wound healing assay, cells were plated to confluence in a 6-well plate, and the cell monolayer was scratched using a pipette tip. Representative photos were taken using a digital camera mounted on an inverted microscope (Olympus) at indicated times. Live cell imaging was performed using the HoloMonitor M4 time-lapse cytometer (Phase Holographic Imaging, Sweden). […]
# of A549 cells. […] (bottom) Quantification of cell migration and invasion expressed as a percentage of Scr control; mean ± s.d. from three independent experiments; two-tailed Student’s t-test, **P<0.01 compared to Scr control. […]
# NatD = assay: Quantitative real-time PCR / western blot of NatD knockdown; conditions: H1299 cells; for NatD mRNA, remaining relative to scrambled control: stable lentiviral shRNA, qPCR normalized to GAPDH, three independent experiments; for NatD protein level: western blot, vs Scr
# Text: Fig. 2 NatD is required for lung cancer cell migration and invasion in vitro. a Quantitative real-time PCR analysis of NatD mRNA levels normalized to GAPDH in scrambled control cells (Scr) and NatD-KD1 and NatD-KD2 cells. Results are shown as mean ± s.d. from three independent experiments. Two-tailed Student’s t-test was used. **P < 0.01 compared to Scr control. b Western blot analysis of NatD and Nt-ac-H4 protein levels in scrambled, NatD-KD1, and NatD-KD2 cells. GAPDH and histone H4 served as loading controls. Blots are representative of three independent experiments. c Representative images from wound healing assay of scrambled, NatD-KD1, and NatD-KD2 cells from three independent experiments (left panels). Wound healing assay results are quantified in the histogram (right panel). Results are shown as mean ± s.d. from three independent experiments. Two-tailed Student’s t-test was used. **P < 0.01 compared to Scr control. d Representative images of the migration of scrambled, NatD-KD1, and NatD-KD2 cells in a time-lapse cell tracker migration assay from three independent experiments. Representative images of the migration (e) and invasion (f) of scramble, NatD-KD1, and NatD-KD2 cells with transwell assay from three independent experiments (top panel). Cell counts for the corresponding assays of at least four random microscope fields (×100 magnification). Cell migration and invasion are expressed as a percentage of control (bottom panel). Results are shown as mean ± s.d. from three independent experiments. Two-tailed Student’s t-test was used. **P < 0.01 compared to Scr control
# The small interfering RNA (siRNA) target sequences for RNA interference of NatD were inserted into the XhoI/HpaI sites in the pLL3.7 lentiviral vector according to the manufacturer’s recommendations (American Type Culture Collection, USA). The oligonucleotides were:
# Total RNA from tissue samples and cultured cells was extracted using TRIzol reagent (Invitrogen). cDNAs were synthesized with a HiScript 1st Strand cDNA Synthesis Kit (Vazyme Biotech, China). Quantitative RT-PCR was performed using a FastStart Universal SYBR Green Master (Roche) according to the manufacturer’s instructions in a Rotor-Gene 6000 (Corbett Research) in a final volume of 20 μl. Cycling conditions were 94 °C for 15 s, 60 °C for 30 s, and 72 °C for 30 s. Each reaction was performed in triplicate. The primer sequences for RT-PCR are listed in Supplementary Table 2 and Table 3.
substance,measurement,setting,value
"NatD-KD1: Human NatD shRNA KD1: 5′-GATGAAGAAGGTTATGTTA-3′, lentiviral (shRNA, lentiviral)",random motility,H1299 cells,lower random motility
same,cell migration and invasion (transwell),A549 cells,inhibits cell migration and invasion
same,"NatD mRNA, remaining relative to scrambled control",NatD,30%
same,NatD protein level,NatD,decreased
"NatD-KD2: Human NatD shRNA KD2: 5′-GGTTGAATGTCTCCATTGA-3′, lentiviral (shRNA lentiviral)",random motility,H1299 cells,lower random motility
same,cell migration and invasion (transwell),A549 cells,inhibits cell migration and invasion
same,NatD knockdown quality,NatD; KD2 vs KD1,somewhat better knockdown
same,"NatD mRNA, remaining relative to scrambled control",NatD,30%
same,NatD protein level,NatD,decreased
